Values belong to the compound of their own block, whether it stands above or below them.
How the values were obtained:
Test in all cases: Competitive isoTOP-ABPP, cell lysates
Format in all cases: binding
PDIA6 C55 (Q15084) = target: T1, PDIA6 C55 (Q15084) (Homo sapiens, UniProt Q15084); settings: for isoTOP-ABPP ratio Q15084_C55: 500 μM, invitro
T1 sequence (Q15084 20-440): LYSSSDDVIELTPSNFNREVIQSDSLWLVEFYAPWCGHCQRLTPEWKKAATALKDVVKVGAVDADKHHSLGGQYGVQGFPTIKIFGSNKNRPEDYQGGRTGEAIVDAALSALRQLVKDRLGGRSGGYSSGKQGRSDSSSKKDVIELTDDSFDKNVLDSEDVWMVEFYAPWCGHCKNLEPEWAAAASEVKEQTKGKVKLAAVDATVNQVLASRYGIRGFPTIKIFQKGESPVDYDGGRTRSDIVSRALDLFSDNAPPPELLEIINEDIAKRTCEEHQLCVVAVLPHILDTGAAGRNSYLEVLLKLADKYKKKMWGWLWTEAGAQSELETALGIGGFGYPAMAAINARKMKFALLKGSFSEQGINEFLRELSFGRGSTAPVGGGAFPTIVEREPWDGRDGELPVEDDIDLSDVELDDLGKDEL

SAMHD1 C522 (Q9Y3Z3) = SAMHD1 C522 (Q9Y3Z3) (Homo sapiens, UniProt Q9Y3Z3)
SMARCC2 C145 (Q8TAQ2) = SMARCC2 C145 (Q8TAQ2) (Homo sapiens, UniProt Q8TAQ2); settings: for isoTOP-ABPP ratio Q8TAQ2_C145: 500 μM, invitro; for isoTOP-ABPP ratio (reactivity profile), Q8TAQ2_C145: 500 μm in-vitro ramos_231
ACAT1 C196 (P24752) = target: T2, ACAT1 C196 (P24752) (Homo sapiens, UniProt P24752); settings: for isoTOP-ABPP ratio, P24752_C196: 500 μM, invitro
T2 sequence (P24752 34-427): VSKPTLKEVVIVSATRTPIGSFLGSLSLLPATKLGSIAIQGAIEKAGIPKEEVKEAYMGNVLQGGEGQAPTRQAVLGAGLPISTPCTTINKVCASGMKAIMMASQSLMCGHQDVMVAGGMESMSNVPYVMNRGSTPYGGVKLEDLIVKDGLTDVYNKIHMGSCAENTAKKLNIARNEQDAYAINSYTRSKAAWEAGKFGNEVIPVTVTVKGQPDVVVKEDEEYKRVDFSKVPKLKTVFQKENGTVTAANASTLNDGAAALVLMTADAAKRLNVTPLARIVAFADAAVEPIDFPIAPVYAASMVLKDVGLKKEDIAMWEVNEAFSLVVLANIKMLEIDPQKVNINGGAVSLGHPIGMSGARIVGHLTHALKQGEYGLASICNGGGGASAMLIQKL

ACAT1 C413 (P24752) = target: T3, ACAT1 C413 (P24752) (Homo sapiens, UniProt P24752); settings: for isoTOP-ABPP ratio P24752_C413: 500 μM, invitro
T3 sequence (P24752 34-427): T2 sequence (P24752 34-427)

ACAT1 C126 (P24752) = target: T4, ACAT1 C126 (P24752) (Homo sapiens, UniProt P24752); settings: for isoTOP-ABPP ratio, P24752_C126: 500 μM, invitro
T4 sequence (P24752 34-427): T2 sequence (P24752 34-427)

UBE2L3 C86 (P68036) = UBE2L3 C86 (P68036) (Homo sapiens, UniProt P68036); settings: for isoTOP-ABPP ratio, P68036_C86: 500 μM, invitro
STAT3 C259 (P40763) = STAT3 C259 (P40763) (Homo sapiens, UniProt P40763)
AIP C122 (O00170) = target: T5, AIP C122 (O00170) (Homo sapiens, UniProt O00170)
T5 sequence (O00170 1-330): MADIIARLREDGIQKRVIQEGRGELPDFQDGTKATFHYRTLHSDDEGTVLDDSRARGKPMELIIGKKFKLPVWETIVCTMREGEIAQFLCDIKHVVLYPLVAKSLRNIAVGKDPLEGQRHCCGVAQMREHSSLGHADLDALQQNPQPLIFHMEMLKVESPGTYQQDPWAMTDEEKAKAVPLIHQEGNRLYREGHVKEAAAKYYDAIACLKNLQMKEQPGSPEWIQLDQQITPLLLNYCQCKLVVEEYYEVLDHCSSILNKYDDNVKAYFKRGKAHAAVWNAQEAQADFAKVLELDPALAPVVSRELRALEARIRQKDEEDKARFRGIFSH

DCUN1D1 C115 (Q96GG9) = DCUN1D1 C115 (Q96GG9) (Homo sapiens, UniProt Q96GG9)

isoTOP-ABPP reactivity profile ratio, Q15084_C55 (PDIA6 C55 (Q15084); 500 μm, in-vitro_ramos_231): 1.0
isoTOP-ABPP reactivity profile ratio, Q9Y3Z3_C522 (SAMHD1 C522 (Q9Y3Z3); 500 μm, in-vitro_ramos_231): 0.8
isoTOP-ABPP reactivity profile ratio, Q8TAQ2_C145 (SMARCC2 C145 (Q8TAQ2); 500 μm, in-vitro_ramos_231): 1.0
isoTOP-ABPP reactivity profile ratio, P24752_C196 (ACAT1 C196 (P24752); 500 μm, in-vitro_ramos_231): 0.8
isoTOP-ABPP reactivity profile ratio, P24752_C413 (ACAT1 C413 (P24752); 500 μm, in-vitro_ramos_231): 0.8
isoTOP-ABPP reactivity profile ratio, P24752_C126 (ACAT1 C126 (P24752); 500 μm, in-vitro_ramos_231): 0.8
Compound: O=C(CCl)NC1C(O)OC(CO)C(O)C1O (mixture of isomers) [compound 44]

isoTOP-ABPP ratio Q15084_C55 (PDIA6 C55 (Q15084); 231): 0.9
isoTOP-ABPP ratio Q15084_C55 (PDIA6 C55 (Q15084); ramos): 1.1
isoTOP-ABPP ratio, Q9Y3Z3_C522 (SAMHD1 C522 (Q9Y3Z3); 500 μM, invitro, ramos): 5.4
isoTOP-ABPP ratio Q8TAQ2_C145 (SMARCC2 C145 (Q8TAQ2); ramos): 2.8
isoTOP-ABPP ratio, P68036_C86 (UBE2L3 C86 (P68036); ramos): 4.8
isoTOP-ABPP ratio, P24752_C196 (ACAT1 C196 (P24752); 231): 1.5
isoTOP-ABPP ratio, P24752_C196 (ACAT1 C196 (P24752); ramos): 2.2
isoTOP-ABPP ratio P24752_C413 (ACAT1 C413 (P24752); 231): 1.3
isoTOP-ABPP ratio, P24752_C126 (ACAT1 C126 (P24752); 231): 0.9
isoTOP-ABPP ratio, P24752_C126 (ACAT1 C126 (P24752); ramos): 1.3
Compound: C=CC(=O)N(c1ccccc1)c1ccc(Br)cc1 [compound 5]

isoTOP-ABPP ratio Q15084_C55 (PDIA6 C55 (Q15084); 231): 1.0
isoTOP-ABPP ratio, P40763_C259 (STAT3 C259 (P40763); 500 μM, invitro, 231): 0.6
isoTOP-ABPP ratio, P68036_C86 (UBE2L3 C86 (P68036); 231): 1.8
isoTOP-ABPP ratio, P24752_C196 (ACAT1 C196 (P24752); 231): 1.0
isoTOP-ABPP ratio P24752_C413 (ACAT1 C413 (P24752); 231): 1.1
isoTOP-ABPP ratio, P24752_C126 (ACAT1 C126 (P24752); 231): 0.9
Compound: CNS(=O)(=O)C=Cc1ccc2c(ccn2Cc2ccccc2)c1 [compound 6]

isoTOP-ABPP ratio, O00170_C122 (AIP C122 (O00170); 500 μM, invitro, ramos): 1.3
isoTOP-ABPP ratio, Q96GG9_C115 (DCUN1D1 C115 (Q96GG9); 500 μM, invitro, ramos): 0.6
isoTOP-ABPP ratio Q15084_C55 (PDIA6 C55 (Q15084); 231): 3.7
isoTOP-ABPP ratio Q15084_C55 (PDIA6 C55 (Q15084); ramos): 3.1
isoTOP-ABPP ratio Q8TAQ2_C145 (SMARCC2 C145 (Q8TAQ2); 231): 2.8
isoTOP-ABPP ratio Q8TAQ2_C145 (SMARCC2 C145 (Q8TAQ2); ramos): 1.6
isoTOP-ABPP ratio, P24752_C196 (ACAT1 C196 (P24752); 231): 1.2
isoTOP-ABPP ratio, P24752_C196 (ACAT1 C196 (P24752); ramos): 0.9
isoTOP-ABPP ratio P24752_C413 (ACAT1 C413 (P24752); 231): 1.5
isoTOP-ABPP ratio P24752_C413 (ACAT1 C413 (P24752); ramos): 1.1
isoTOP-ABPP ratio, P24752_C126 (ACAT1 C126 (P24752); 231): 1.0
isoTOP-ABPP ratio, P24752_C126 (ACAT1 C126 (P24752); ramos): 1.1
Compound: O=C(CCl)NC(=O)NC12CC3CC(CC(C3)C1)C2 [compound 12]

isoTOP-ABPP ratio (reactivity profile), O00170_C122 (AIP C122 (O00170); 500 μm in-vitro ramos): 1.4
isoTOP-ABPP ratio (reactivity profile), O00170_C122 (AIP C122 (O00170); 500 μm in-vitro ramos_231): 0.7
isoTOP-ABPP ratio (reactivity profile), Q96GG9_C115 (DCUN1D1 C115 (Q96GG9); 500 μm in-vitro ramos): 20.0
isoTOP-ABPP ratio (reactivity profile), Q15084_C55 (PDIA6 C55 (Q15084); 500 μm in-vitro ramos): 1.0
isoTOP-ABPP ratio (reactivity profile), Q15084_C55 (PDIA6 C55 (Q15084); 500 μm in-vitro ramos_231): 0.8
isoTOP-ABPP ratio (reactivity profile), Q8TAQ2_C145 (SMARCC2 C145 (Q8TAQ2)): 1.3
isoTOP-ABPP ratio (reactivity profile), P40763_C259 (STAT3 C259 (P40763); 500 μm in-vitro ramos): 0.8
isoTOP-ABPP ratio (reactivity profile), P40763_C259 (STAT3 C259 (P40763); 500 μm in-vitro ramos_231): 1.1
isoTOP-ABPP ratio (reactivity profile), P68036_C86 (UBE2L3 C86 (P68036); 500 μm in-vitro ramos): 13.2
isoTOP-ABPP ratio (reactivity profile), P68036_C86 (UBE2L3 C86 (P68036); 500 μm in-vitro ramos_231): 7.4
isoTOP-ABPP ratio (reactivity profile), P24752_C196 (ACAT1 C196 (P24752); 500 μm in-vitro ramos): 1.8
isoTOP-ABPP ratio (reactivity profile), P24752_C413 (ACAT1 C413 (P24752); 500 μm in-vitro ramos): 1.2
isoTOP-ABPP ratio (reactivity profile), P24752_C413 (ACAT1 C413 (P24752); 500 μm in-vitro ramos_231): 1.1
isoTOP-ABPP ratio (reactivity profile), P24752_C126 (ACAT1 C126 (P24752); 500 μm in-vitro ramos): 0.8
isoTOP-ABPP ratio (reactivity profile), P24752_C126 (ACAT1 C126 (P24752); 500 μm in-vitro ramos_231): 0.8
Compound: N#C/C(=C\c1cc(C(F)(F)F)cc(C(F)(F)F)c1)C(N)=O [compound 23]

isoTOP-ABPP ratio (reactivity profile), Q15084_C55 (PDIA6 C55 (Q15084); 500 μm in-vitro ramos_231): 1.0
isoTOP-ABPP ratio (reactivity profile), Q8TAQ2_C145 (SMARCC2 C145 (Q8TAQ2)): 0.9
isoTOP-ABPP ratio (reactivity profile), P40763_C259 (STAT3 C259 (P40763); 500 μm in-vitro ramos_231): 0.9
isoTOP-ABPP ratio (reactivity profile), P68036_C86 (UBE2L3 C86 (P68036); 500 μm in-vitro ramos_231): 1.5
isoTOP-ABPP ratio (reactivity profile), P24752_C196 (ACAT1 C196 (P24752); 500 μm in-vitro ramos_231): 0.9
isoTOP-ABPP ratio (reactivity profile), P24752_C413 (ACAT1 C413 (P24752); 500 μm in-vitro ramos_231): 1.0
isoTOP-ABPP ratio (reactivity profile), P24752_C126 (ACAT1 C126 (P24752); 500 μm in-vitro ramos_231): 0.9
Compound: CC(Cl)C(=O)Nc1cc(C(F)(F)F)cc(C(F)(F)F)c1 (stereo not drawn) [compound 25]

isoTOP-ABPP reactivity ratio, O00170_C122 (AIP C122 (O00170); 500 μm, in-vitro_ramos_231): 1.0
isoTOP-ABPP reactivity ratio, Q15084_C55 (PDIA6 C55 (Q15084); 500 μm, in-vitro_ramos_231): 0.9
isoTOP-ABPP reactivity ratio, P24752_C196 (ACAT1 C196 (P24752); 500 μm, in-vitro_ramos): 1.0
isoTOP-ABPP reactivity ratio, P24752_C196 (ACAT1 C196 (P24752); 500 μm, in-vitro_ramos_231): 0.8
isoTOP-ABPP reactivity ratio, P24752_C413 (ACAT1 C413 (P24752); 500 μm, in-vitro_ramos): 1.3
isoTOP-ABPP reactivity ratio, P24752_C413 (ACAT1 C413 (P24752); 500 μm, in-vitro_ramos_231): 0.9
isoTOP-ABPP reactivity ratio, P24752_C126 (ACAT1 C126 (P24752); 500 μm, in-vitro_ramos): 1.1
Compound: O=C(CCl)N(Cc1ccc(F)cc1)C12CC3CC(CC(C3)C1)C2 [compound 34]
